# Test results from US7495147B2, “Neuregulin-1 transgenic mouse and methods of use” (deCODE genetics ehf., priority 2000, dated 2009).
# Tested on: NRG1TM hypomorphic mice
# Test: open field test of locomotor activity in NRG1TM hypomorphic mice and litter-mate controls
# Assay type: in vivo, mouse
# Conditions: litter-mate control (wild-type) mice; clozapine 1 mg/kg i.p. 25 min prior to testing
# Procedure: Male NRG1TM hypomorphs, ErbB4 hypomorphs and litter-mate controls for each line were bred at Charles River Laboratories USA by crossing to a C57B16 background. They were shipped to the testing laboratory at PsychoGenics Inc. NY, USA (six weeks prior to behavioral testing) where they were housed in groups of 3-5 related mice per cage. The open field study was conducted when the male mice were 5 to 6 months of age. Group housed mice were brought into the experimental room and allowed to acclimate for one hour prior to testing. Each mouse was placed for 30 minutes in a square open field box (17×17×12 inch). Up to eight animals were tested at one time, one animal in each of eight arenas, under low lighting conditions (provided by a 15 watt red lamp). The automated infrared beam array system measured locomotion in the center and periphery of the test arena. Activity data were collected in 5 min intervals over the 30 min open field session and analyzed with a series of repeated measures analysis of variance (ANOVA) with session interval as a within-subject factor and genotype as a between-subject factor. Clozapine (1 mg/kg in 1% Tween 20, pH 6.0) was injected intraperitoneally (i.p.) 25 min before behavioral testing. Total activity data from the study with clozapine were analyzed with a two-tailed, Student's t-test. Naïve mice were used for these experiments. […]
compound,measurement,value
"CN1CCN(C2=Nc3cc(Cl)ccc3Nc3ccccc32)CC1 [Clozapine, clozapine]",open field activity of litter-mate control mice,no effect
